From ChEMBL document CHEMBL1158313, “Isolation of New Steroidal Hemiacetals from the Gorgonian Euplexaura anastomosans” (J Nat Prod, 1996) come the findings set out here.

Active and inactive are the calls of the source. The rule behind the calls is not given here.

The subject of the first series is Artemia. As to the kind of experiment: Toxicity against brine shrimp larvae. In kind it is organism-based. As to conditions: in vivo.
Regarding `CC(C)[C@H]1CC[C@H]([C@@]2(O)CC[C@H]3[C@@H]4CCC5=CC(=O)C=C[C@]5(C)[C@H]4CC[C@@]32C)[C@H](O)O1` [ANASTOMOSACETAL A], the Activity result is on record as “Non-toxic”.

In the case of `CC(C)[C@H]1CC[C@H]([C@@]2(O)CC[C@H]3[C@@H]4CC[C@H]5CC(=O)C=C[C@]5(C)[C@H]4CC[C@@]32C)[C@H](O)O1` [ANASTOMOSACETAL B], the Activity result is “Non-toxic”.

Consider `CC(C)[C@H]1CC[C@H]([C@@]2(O)CC[C@H]3[C@@H]4CCC5=CC(=O)CC[C@]5(C)[C@H]4CC[C@@]32C)[C@H](O)O1` [ANASTOMOSACETAL C], for which the Activity entry is “Non-toxic”.

For the compound `CC(C)[C@H]1CC[C@H]([C@@]2(O)CC[C@H]3[C@@H]4CC[C@H]5CC(=O)CC[C@]5(C)[C@H]4CC[C@@]32C)[C@H](O)O1` [ANASTOMOSACETAL D], the Activity result is recorded as “Non-toxic”.

The next series deals with P388. As to the kind of experiment: Cytotoxicity against mouse P388 cells. The series is classed as functional, cell-based.
Conditions: not given
For the compound `CC(C)[C@H]1CC[C@H]([C@@]2(O)CC[C@H]3[C@@H]4CCC5=CC(=O)C=C[C@]5(C)[C@H]4CC[C@@]32C)[C@H](O)O1` [ANASTOMOSACETAL A], the result was inactive.

For `CC(C)[C@H]1CC[C@H]([C@@]2(O)CC[C@H]3[C@@H]4CC[C@H]5CC(=O)C=C[C@]5(C)[C@H]4CC[C@@]32C)[C@H](O)O1` [ANASTOMOSACETAL B], the result was inactive.

For `CC(C)[C@H]1CC[C@H]([C@@]2(O)CC[C@H]3[C@@H]4CCC5=CC(=O)CC[C@]5(C)[C@H]4CC[C@@]32C)[C@H](O)O1` [ANASTOMOSACETAL C], the result was inactive.

Take `CC(C)[C@H]1CC[C@H]([C@@]2(O)CC[C@H]3[C@@H]4CC[C@H]5CC(=O)CC[C@]5(C)[C@H]4CC[C@@]32C)[C@H](O)O1` [ANASTOMOSACETAL D]: the result was inactive.
